Assays:
α-glucosidase [1] = target: T1, α-glucosidase (Saccharomyces cerevisiae, UniProt P53341); assay: kinetic analysis of the inhibition of α-glucosidase; format: biochemical; conditions: Figure 4
Description: (§1) Biological assays. The assays for α-glucosidase and MptpB inhibition inhibitory activities were carried out as described previously.

α-glucosidase [2] = target: T1, α-glucosidase; assay: α-glucosidase inhibitory activity assay; format: biochemical; conditions: qualitative statement
Description: as §1

T1 sequence (P53341 whole entry): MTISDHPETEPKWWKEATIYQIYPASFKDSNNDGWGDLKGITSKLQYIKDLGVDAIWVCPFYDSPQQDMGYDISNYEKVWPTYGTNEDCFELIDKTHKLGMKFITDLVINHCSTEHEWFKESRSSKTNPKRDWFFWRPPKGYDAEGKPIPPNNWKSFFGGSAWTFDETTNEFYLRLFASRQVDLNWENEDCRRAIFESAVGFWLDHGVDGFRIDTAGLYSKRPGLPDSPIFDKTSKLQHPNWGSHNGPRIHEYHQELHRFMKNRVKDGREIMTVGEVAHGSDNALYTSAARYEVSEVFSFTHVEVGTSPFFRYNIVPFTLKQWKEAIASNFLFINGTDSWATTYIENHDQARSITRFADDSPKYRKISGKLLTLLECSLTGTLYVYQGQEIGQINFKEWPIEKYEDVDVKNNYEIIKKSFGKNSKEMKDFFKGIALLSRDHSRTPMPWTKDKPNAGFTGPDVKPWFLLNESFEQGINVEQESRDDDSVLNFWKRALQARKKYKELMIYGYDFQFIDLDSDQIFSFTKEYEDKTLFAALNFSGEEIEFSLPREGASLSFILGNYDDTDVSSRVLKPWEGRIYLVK

SMILES | type of α-glucosidase inhibition (kinetic studies) (α-glucosidase [1]) | α-glucosidase inhibitory activity (in words) (α-glucosidase [2])
Cc1cc(O)cc2c1Oc1c(CO)c(O)cc(C)c1C(=O)O2 [Compound 6, botryorhodine D] | noncompetitive inhibitors | 
Cc1cc(O)c(C)c2c1Oc1c(O)c(O)cc(C)c1C(=O)O2 [Compound 2, Botryorhodine F] | noncompetitive inhibitors | 
O=C1NC(=O)c2c(O)cc(O)cc21 [Compound 10, 4,6-dihydroxy-1H-isoindole-1,3(2H)-dione] |  | moderate to weak activities
O=C1NCc2c(O)cc(O)cc21 [Compound 8, 4,6-dihydroxy-2,3-dihydro-1H-isoindol-1-one] |  | moderate to weak activities
O=C(O)CCCCN1Cc2c(O)cc(O)cc2C1=O [Compound 7, Meyeroguilline A] |  | promising α-glucosidase inhibitory activity

From paper PMC4578337, “New depsidones and isoindolinones from the mangrove endophytic fungus Meyerozyma guilliermondii (HZ-Y2) isolated from the South China Sea” (Beilstein Journal of Organic Chemistry, 2015)
